Some test systems named below: SNB-75; Malme-3M; HOP-92; IGROV-1; HT-29; 786-0; UACC-257; MDA-MB-231; NCI-H460; M14; DLD-1; NCI/ADR-RES; CCRF-CEM; RXF 393; SF-295; Hs-578T; MCF7; A498; HL-60; SK-MEL-28.
What all share (assay): NCI anticancer screen, dose series, 48 h

The source of these data is ChEMBL document CHEMBL1201862, “PubChem BioAssay data set” (2004).

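Method: 48-hour compound exposure of cells in 96-well plates, five concentrations, linear interpolation of endpoints. GI50 is the concentration that inhibits growth by half.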 Active and inactive are the calls of the source. Cut-off read from the data, not from the text of the source: active = GI50 up to about 1.1 µM and inactive = higher.

Turning to `O=NN(CCCl)C(=O)NC1CCC(=O)NC1=O` (configuration not stated), the GI50 in the assay with SNB-75 was 60.5 µM (inactive); in the assay on Malme-3M, 221 µM (inactive); with HOP-92, 143 µM (inactive); in the assay on IGROV-1 it was 365 µM (inactive); in the assay with HT-29, 807 µM (inactive); in the assay on 786-0, 61.7 µM (inactive). Besides, the GI50 was 335 µM (inactive) in the assay with UACC-257; 286 µM (inactive) with MDA-MB-231; 83.8 µM (inactive) with NCI-H460; 356 µM (inactive) in the assay on M14; 358 µM (inactive) in the assay with DLD-1; 193 µM (inactive) in the assay on NCI/ADR-RES. Further, the GI50 with CCRF-CEM is 75.5 µM (inactive); in the assay with RXF 393 it was 232 µM (inactive); in the assay on SF-295, 30.3 µM (inactive); in the assay on Hs-578T, 348 µM (inactive); with MCF7, 330 µM (inactive); in the assay with A498, 174 µM (inactive). In addition, the GI50 is 66.7 µM (inactive) in the assay on HL-60 and 409 µM (inactive) in the assay with SK-MEL-28.

Consider `COC1C(C)OC(OC2CC(C)(O)Cc3cc4c(c(O)c32)C(=O)c2c(O)cc3c(c2C4=O)OC2OC3(C)C(O)C(N(C)C)C2O)C(OC)C1(C)OC` (configuration not stated), for which the GI50 was 0.0165 µM (active) in the assay on SNB-75; 0.0561 µM (active) in the assay on Malme-3M; 0.0333 µM (active) with HOP-92; 0.0197 µM (active) in the assay on IGROV-1; 0.0243 µM (active) in the assay on HT-29; 0.0861 µM (active) in the assay with 786-0. Moreover, the GI50 in the assay with UACC-257 was 0.00553 µM (active); in the assay with MDA-MB-231 it was 0.00129 µM (active); with NCI-H460 it was 0.00345 µM (active); in the assay with M14, 0.00479 µM (active); in the assay with DLD-1, 0.119 µM (active); in the assay with NCI/ADR-RES, 2.21 µM (inactive). The GI50 in the assay with CCRF-CEM is 0.00475 µM (active); with RXF 393, 0.00463 µM (active); in the assay on SF-295, 0.0047 µM (active); with Hs-578T, 5.79e-05 µM (active); in the assay on MCF7 it was 0.0331 µM (active); with A498, 0.0256 µM (active). The GI50 in the assay with HL-60 was 0.00541 µM (active); in the assay with SK-MEL-28, 0.00557 µM (active).

On to `CCOC(=O)CCC1(C(=O)OCC)CCCC1=O` (configuration not stated), for which the GI50 in the assay with SNB-75, in the assay on Malme-3M, in the assay with HOP-92, with IGROV-1, in the assay with HT-29 and with 786-0 was > 100 µM (inactive) each time. Further, the GI50 with UACC-257, in the assay with NCI-H460, in the assay on M14, in the assay with DLD-1, in the assay on CCRF-CEM and in the assay on RXF 393 was > 100 µM (inactive) throughout. For the same compound, the GI50 in the assay with SF-295, in the assay with A498, with HL-60 and in the assay with SK-MEL-28 was > 100 µM (inactive) in each case.

With `O=C1NC2C(=O)N(Cc3ccccc3)C(=O)C2N1` (configuration not stated), the GI50 with SNB-75, with Malme-3M, with HOP-92, with IGROV-1, in the assay with HT-29 and in the assay with 786-0 was > 100 µM (inactive) each time. The GI50 in the assay with UACC-257 is > 100 µM (inactive); in the assay on NCI-H460 it was > 100 µM (inactive); in the assay with M14, 37.8 µM (inactive); in the assay with DLD-1 it was > 100 µM (inactive); in the assay on CCRF-CEM, > 100 µM (inactive); in the assay with RXF 393, > 100 µM (inactive). For the same compound, the GI50 in the assay on SF-295, with A498, in the assay on HL-60 and in the assay with SK-MEL-28 was > 100 µM (inactive) each time.
